# Source: patent US10246448B2, “4-hydroxy-2-phenyl-1,3-thiazol-5-yl methanone derivatives as TRPM8 antagonists” (DOMPÉ FARMACEUTICI S.P.A., priority 2015, dated 2019)
# Columns and labels:
# [1] = biological target: T1, human TRPM8 (Homo sapiens, UniProt Q7Z2W7); test: In vitro cold stimulation assay
# Description: The TRPM8 antagonisticic activity of all 26 compounds was determined in an in vitro cold stimulation assay.
# 3-4 days after seeding (˜80% confluent cells), the medium was removed and cells were loaded by a solution of Screen Quest™ Fluo-8 NW dye (ABS Bioquest, Sunnyvale, Calif., USA) in the dark. Dye-loaded cell flasks were incubated for 45 minutes at room temperature in the dark and the Fluo-8 NW solution was then removed and cells were seeded in the 96 Assay Plates (MicroAmp™ Optical 96-Well Reaction Plates; Applied Biosystems, Life technologies) at 100,000 cells/'well (20 μl/well). […] All data point determinations were performed in duplicate before a mean value was calculated, including error bars representing the standard error of the mean.
# [2] = Metabolic stability in rat microsomes, Phase II assay; format: in vitro ADME; conditions: pH 7.4; rat liver microsomes 0.5 mg/mL, Alamethicin activated, UDPGA, compound 1 μM, 37° C.; read-out: Metabolic Stability (t1/2, min) Phase2
# Description: Rat liver microsomes (0.5 mg/mL final conc.) were incubated in ice for 15 min in 50 mM potassium phosphate buffer pH 7.4, 3 mM MgCl2 and activated with Alamethicin 50 μg/mg microsomal protein. Samples were transferred at 37° C. and compounds 1, 2, 8 and 9, dissolved in DMSO, were added in duplicate at the final concentration of 1 μM. After 5 min, reaction is started by adding 25 μl of UDPGA (16.15 mg/ml in 0.2% Sodium Bicarbonate). Samples were taken at time 0, 10, 20, 30 and 60 min added to 150 μl of acetonitrile with Verapamil 0.02 uM as Internal Standard (IS) to stop the reaction. After centrifugation the supernatants were analysed by LC-MS/MS. 7-Hydroxycoumarin was added as reference standard.
# [3] = Metabolic stability in rat microsomes, Phase I assay; format: in vitro ADME; conditions: for half-life at 1 μM: pH 7.4, rat liver microsomes 0.5 mg/ml, compound 1 μM, NADP cofactors mixture, 37° C., read-out: Metabolic Stability (t1/2, min) Phase1
# Description: Compounds 1, 2, 8 and 9 in duplicate were dissolved in DMSO and pre-incubated, at the final concentration of 1 μM, for 10 min at 37° C. in potassium phosphate buffer 50 mM pH 7.4, 3 mM MgCl2, with rat liver microsomes (Xenotech) at the final concentration of 0.5 mg/ml.
# After the pre-incubation period, reactions were started by adding the cofactors mixture (NADP, Glc6P, Glc6P-DH in 2% Sodium bicarbonte); samples (50 μl) were taken at time 0, 10, 20, 30 and 60 min added to 150 μl of acetonitrile with Verapamil 0.02 μM as Internal Standard (IS) to stop the reaction. After centrifugation the supernatants were analysed by LC-MS/MS.
# A control sample without cofactors was added in order to check the stability of test compounds in the matrix after 60 min. 7-Ethoxycoumarin and propranolol were added as reference standards.
# [4] = biological target: T1, human TRPM8; test: In vitro TRPM8 assay: intracellular calcium levels, Ca2+ sensitive fluorescent dye (FLIPR), agonist Icilin or Cooling Agent 10; format: cell-based; design: expressed in transfected cells; conditions: HEK-293 cells stably expressing human TRPM8
# Description: The TRPM8 antagonistic activity of all 26 compounds was determined by measuring changes in intracellular calcium levels using a Ca^+2 sensitive fluorescent dye. The experiments were performed using HEK-293 cells stably expressing the human TRPM8. Cells were seeded 10000 cells/well in 384 plates coated by Poly-D-Lysine MATRIX black/clear bottom (Thermo Scientific, Waltham, Mass. USA) in complete medium and grown overnight at 37° C., 5% CO2. 24 h after seeding, cell culture media was removed, cells were washed with Tyrode's assay buffer and then loaded with the fluorescent Ca^+2 indicator Fluo-4 NW dye (Molecular Probes, Life Technologies, Paisley, UK) supplemented with water-soluble Probenecid (Molecular Probes). Dye loaded cell plates were incubated for 1 h at room temperature. The compounds or vehicle were added and the kinetic response was monitored by a fluorimetric imaging plate ([…]; Molecular Devices, Sunnyvale, Calif., USA) over a period of five minutes (300 seconds). A second injection 5 minutes later of the reference agonist Cooling Agent 10 or Icilin at EC80 concentration was performed. The signal of the emitted fluorescence was recorded during additional three minutes. Data were analyzed by Spotfire DecisionSite version 9.1.1. The bioactivity exerted by the compounds or vehicle was expressed as a percent inhibition and IC50 values were then calculated.
# [5] = agonist Cooling Agent 10 at EC80, read-out: Ca2+ (IC50 μM) Cool 10
# [6] = agonist Icilin at EC80, read-out: Ca2+ (IC50 μM) Icilin
# T1 sequence (Q7Z2W7 whole entry): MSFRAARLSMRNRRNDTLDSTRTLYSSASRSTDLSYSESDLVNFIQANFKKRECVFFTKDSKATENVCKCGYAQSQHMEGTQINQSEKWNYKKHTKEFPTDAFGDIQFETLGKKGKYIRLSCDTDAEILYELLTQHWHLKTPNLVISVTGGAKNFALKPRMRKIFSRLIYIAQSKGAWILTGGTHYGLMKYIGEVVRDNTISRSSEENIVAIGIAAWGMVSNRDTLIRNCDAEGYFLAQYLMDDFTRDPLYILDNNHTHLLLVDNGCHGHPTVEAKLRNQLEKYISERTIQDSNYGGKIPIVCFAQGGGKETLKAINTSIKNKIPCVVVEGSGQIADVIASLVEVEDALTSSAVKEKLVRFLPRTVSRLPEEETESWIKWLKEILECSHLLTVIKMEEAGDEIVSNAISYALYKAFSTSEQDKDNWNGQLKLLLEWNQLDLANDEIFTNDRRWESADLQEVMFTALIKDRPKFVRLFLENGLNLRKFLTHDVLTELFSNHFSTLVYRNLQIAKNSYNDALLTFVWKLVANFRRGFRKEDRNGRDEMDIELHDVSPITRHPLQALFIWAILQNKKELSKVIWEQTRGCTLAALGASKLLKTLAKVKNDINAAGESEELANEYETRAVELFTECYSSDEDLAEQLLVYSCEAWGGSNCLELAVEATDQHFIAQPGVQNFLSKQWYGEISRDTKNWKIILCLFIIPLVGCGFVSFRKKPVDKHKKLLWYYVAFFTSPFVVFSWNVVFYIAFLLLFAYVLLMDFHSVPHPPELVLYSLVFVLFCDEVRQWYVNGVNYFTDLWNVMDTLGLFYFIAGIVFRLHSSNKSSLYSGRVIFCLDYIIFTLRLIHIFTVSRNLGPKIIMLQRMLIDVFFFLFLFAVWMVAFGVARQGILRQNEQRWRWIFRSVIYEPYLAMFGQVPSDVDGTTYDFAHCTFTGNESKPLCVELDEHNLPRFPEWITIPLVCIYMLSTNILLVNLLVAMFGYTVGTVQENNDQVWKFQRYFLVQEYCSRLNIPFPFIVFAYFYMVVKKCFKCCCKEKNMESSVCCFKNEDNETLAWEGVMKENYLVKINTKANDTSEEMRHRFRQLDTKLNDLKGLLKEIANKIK
SMILES,IC50 [1] [nM],half-life at 1 μM [2] [min],half-life at 1 μM [3] [min],"IC50 [4, 5] [µM]","IC50 [4, 6] [µM]",intrinsic clearance half-life (in words) ([3]; metabolic stability in rat microsomes)
"O=C(c1sc(-c2cccc(F)c2)nc1O)C1CCCN1 (stereo not shown) [Example 15, [2-(3-fluorophenyl)-4-hydroxy-1,3-thiazol-5-yl](pyrrolidin-2-yl)methanone]",1310,54,65,1.56,1.23,
"O=C(c1sc(-c2cccc(F)c2)nc1O)N1CCCOC1 [Example 10, [2-(3-fluorophenyl)-4-hydroxy-1,3-thiazol-5-yl](1,3-oxazinan-3-yl)methanone]",102,46,55,0.256,0.231,
"O=C(c1sc(-c2cccc(F)c2)nc1O)N1CCCCCO1 [Example 27, [2-(3-fluorophenyl)-4-hydroxy-1,3-thiazol-5-yl](1,2-oxazepan-2-yl)methanone]",46,63,75,0.121,0.143,
"O=C(c1sc(-c2cccc(F)c2)nc1O)n1ccnc1 [Example 25, [2-(3-fluorophenyl)-4-hydroxy-1,3-thiazol-5-yl](1H-imidazol-1-yl)methanone]",972,40,45,1.25,1.25,
"O=C(c1sc(-c2cccc(F)c2)nc1O)C1CCCO1 (stereo not shown) [Example 5, [2-(3-fluorophenyl)-4-hydroxy-1,3-thiazol-5-yl](oxolan-2-yl)methanone]",124,45,52,0.326,0.362,
"O=C(c1sc(-c2cccc(F)c2)nc1O)N1CCCCO1 [Example 9, [2-(3-fluorophenyl)-4-hydroxy-1,3-thiazol-5-yl](1,2-oxazinan-2-yl)methanone]",8,51,98,0.167,0.123,highest intrinsic clearance half-life
"Cn1nnnc1C(=O)c1sc(-c2cccc(F)c2)nc1O [Example 32, [2-(3-fluorophenyl)-4-hydroxy-1,3-thiazol-5-yl](1-methyl-1H-tetrazol-5-yl)methanone]",63,69,81,0.098,0.101,
"O=C(c1ccc[nH]1)c1sc(-c2cccc(F)c2)nc1O [Example 17, [2-(3-fluorophenyl)-4-hydroxy-1,3-thiazol-5-yl](1H-pyrrol-2-yl)methanone]",124,82,90,0.482,0.564,
"O=C(c1sc(-c2cccc(F)c2)nc1O)n1cccc1 [Example 21, [2-(3-fluorophenyl)-4-hydroxy-1,3-thiazol-5-yl](1H-pyrrol-1-yl)methanone]",657,35,32,0.651,0.745,
